Reference: US11541055B2, “Inhibitors of human immunodeficiency virus replication” (ViiV Healthcare UK (No. 5) LIMITED, priority 2018, dated 2023)
pEC50: −log10 of the molar value.

Columns and labels:
[1] = Compound cytotoxicity, XTT-based colorimetric assay; type: cell-based; settings: human; uninfected MT2 cells, day 4, XTT
Outline: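 Run under the antiviral-assay protocol but without virus. Viability was read on day 4 and CC50 values were derived from the readout.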

[2] = system: recombinant NL4-3 virus (Renilla luciferase) in MT-2 cells; test: HIV cell culture assay (antiviral activity, luciferase readout); type: cell-based; settings: Renilla, NL43
Outline: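 MT-2 cells were infected with recombinant NL4-3 virus carrying Renilla luciferase in place of part of nef. Cells were cultured 4–5 days with serially diluted compound, and luciferase was measured with a live-cell substrate. EC50 was calculated from the median effect equation.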

Compound | CC50 at 4 days [1] [nM] | pEC50 [2]
Cn1nc(NS(C)(=O)=O)c2c(Cl)ccc(-n3c([C@H](Cc4cc(F)cc(F)c4)NC(=O)Cn4nc(C(F)F)c5c4C(F)(F)[C@@H]4C[C@H]54)nc4cc(-c5ccccc5OC(F)(F)F)ccc4c3=O)c21 (atropisomer, axis not shown; (P)) [Example 14, N—((S)-1-((3P)-3-(4-chloro-1-methyl-3-(methylsulfonamido)-1H-indazol-7-yl)-4-oxo-7-(2-(trifluoromethoxy)phenyl)-3,4-dihydroquinazolin-2-yl)-2-(3,5-difluorophenyl)ethyl)-2-((3bS,4aR)-3-(difluoromethyl)-5,5-difluoro-3b,4,4a,5-tetrahydro-1H-cyclopropa[3,4]cyclopenta[1,2-c]pyrazol-1-yl)acetamide] | > 500 | 8.68
CN(c1ccccc1-c1ccc2c(=O)n(-c3ccc(Cl)c4c(NS(=O)(=O)C5CC5)nn(CC(F)F)c34)c([C@H](Cc3cc(F)cc(F)c3)NC(=O)Cn3nc(C(F)F)c4c3C(F)(F)[C@@H]3C[C@H]43)nc2c1)S(C)(=O)=O (atropisomer, axis not shown) [Example 144] | > 500 | 9.74
COCc1nccc(-c2ccc3c(=O)n(-c4ccc(Cl)c5c(NS(C)(=O)=O)nn(C)c45)c([C@H](Cc4cc(F)cc(F)c4)NC(=O)Cn4nc(C(F)F)c5c4C(F)(F)[C@@H]4C[C@H]54)nc3c2)n1 (atropisomer, axis not shown; (P)) [Example 74, N—((S)-1-((3P)-3-(4-chloro-1-methyl-3-(methylsulfonamido)-1H-indazol-7-yl)-7-(2-(methoxymethyl)pyrimidin-4-yl)-4-oxo-3,4-dihydroquinazolin-2-yl)-2-(3,5-difluorophenyl)ethyl)-2-((3bS,4aR)-3-(difluoromethyl)-5,5-difluoro-3b,4,4a,5-tetrahydro-1H-cyclopropa[3,4]cyclopenta[1,2-c]pyrazol-1-yl)acetamide] | > 500 | 10.10
COc1ncc(-c2ccc3c(=O)n(-c4ccc(Cl)c5c(NS(C)(=O)=O)nn(C)c45)c([C@H](Cc4cc(F)cc(F)c4)NC(=O)Cn4nc(C(F)F)c5c4C(F)(F)[C@@H]4C[C@H]54)nc3c2)cn1 (atropisomer, axis not shown; (P)) [Example 39, N—((S)-1-((3P)-3-(4-chloro-1-methyl-3-(methylsulfonamido)-1H-indazol-7-yl)-7-(2-methoxypyrimidin-5-yl)-4-oxo-3,4-dihydroquinazolin-2-yl)-2-(3,5-difluorophenyl)ethyl)-2-((3bS,4aR)-3-(difluoromethyl)-5,5-difluoro-3b,4,4a,5-tetrahydro-1H-cyclopropa[3,4]cyclopenta[1,2-c]pyrazol-1-yl)acetamide] | > 500 | 10.38
CN(c1ccccc1-c1ccc2c(=O)n(-c3ccc(Cl)c4c(NS(C)(=O)=O)nn(C)c34)c([C@H](Cc3cc(F)cc(F)c3)NC(=O)Cn3nc(C(F)F)c4c3C(F)(F)[C@@H]3C[C@H]43)nc2c1)S(C)(=O)=O (atropisomer, axis not shown; (P)) [Example 27, N—((S)-1-((3P)-3-(4-chloro-1-methyl-3-(methylsulfonamido)-1H-indazol-7-yl)-7-(2-(N-methylmethylsulfonamido)phenyl)-4-oxo-3,4-dihydroquinazolin-2-yl)-2-(3,5-difluorophenyl)ethyl)-2-((3bS,4aR)-3-(difluoromethyl)-5,5-difluoro-3b,4,4a,5-tetrahydro-1H-cyclopropa[3,4]cyclopenta[1,2-c]pyrazol-1-yl)acetamide] | > 500 | 9.31
Cn1nc(NS(C)(=O)=O)c2c(Cl)ccc(-n3c([C@H](Cc4cc(F)cc(F)c4)NC(=O)Cn4nc(C(F)F)c5c4C(F)(F)[C@@H]4C[C@H]54)nc4cc(-c5ccnc(C(C)(C)C)n5)ccc4c3=O)c21 (atropisomer, axis not shown; (P)) [Example 72, N—((S)-1-(7-(2-(tert-butyl)pyrimidin-4-yl)-(3P)-3-(4-chloro-1-methyl-3-(methylsulfonamido)-1H-indazol-7-yl)-4-oxo-3,4-dihydroquinazolin-2-yl)-2-(3,5-difluorophenyl)ethyl)-2-((3bS,4aR)-3-(difluoromethyl)-5,5-difluoro-3b,4,4a,5-tetrahydro-1H-cyclopropa[3,4]cyclopenta[1,2-c]pyrazol-1-yl)acetamide] | > 500 | 9.37
COc1ccc(-c2ccc3c(=O)n(-c4ccc(Cl)c5c(NS(C)(=O)=O)nn(C)c45)c([C@H](Cc4cc(F)cc(F)c4)NC(=O)Cn4nc(C(F)F)c5c4C(F)(F)[C@@H]4C[C@H]54)nc3c2)nc1 (atropisomer, axis not shown; (P)) [Example 45, N—((S)-1-((3P)-3-(4-chloro-1-methyl-3-(methylsulfonamido)-1H-indazol-7-yl)-7-(5-methoxypyridin-2-yl)-4-oxo-3,4-dihydroquinazolin-2-yl)-2-(3,5-difluorophenyl)ethyl)-2-((3bS,4aR)-3-(difluoromethyl)-5,5-difluoro-3b,4,4a,5-tetrahydro-1H-cyclopropa[3,4]cyclopenta[1,2-c]pyrazol-1-yl)acetamide] | > 500 | 10.00
Cn1nc(NS(C)(=O)=O)c2c(Cl)ccc(-n3c([C@H](Cc4cc(F)cc(F)c4)NC(=O)Cn4nc(C(F)F)c5c4C(F)(F)[C@@H]4C[C@H]54)nc4cc(-c5cccnn5)ccc4c3=O)c21 (atropisomer, axis not shown; (P)) [Example 49, N—((S)-1-((3P)-3-(4-chloro-1-methyl-3-(methylsulfonamido)-1H-indazol-7-yl)-4-oxo-7-(pyridazin-3-yl)-3,4-dihydroquinazolin-2-yl)-2-(3,5-difluorophenyl)ethyl)-2-((3bS,4aR)-3-(difluoromethyl)-5,5-difluoro-3b,4,4a,5-tetrahydro-1H-cyclopropa[3,4]cyclopenta[1,2-c]pyrazol-1-yl)acetamide] | > 500 | 10.15
Cc1nccc(-c2ccc3c(=O)n(-c4ccc(Cl)c5c(NS(=O)(=O)C6CC6)nn(CC(F)F)c45)c([C@H](Cc4cc(F)cc(F)c4)NC(=O)Cn4nc(C(F)F)c5c4C(F)(F)[C@@H]4C[C@H]54)nc3c2)n1 (atropisomer, axis not shown; (P)) [Example 81, N—((S)-1-((3P)-3-(4-chloro-3-(cyclopropanesulfonamido)-1-(2,2-difluoroethyl)-1H-indazol-7-yl)-7-(2-methylpyrimidin-4-yl)-4-oxo-3,4-dihydroquinazolin-2-yl)-2-(3,5-difluorophenyl)ethyl)-2-((3bS,4aR)-3-(difluoromethyl)-5,5-difluoro-3b,4,4a,5-tetrahydro-1H-cyclopropa[3,4]cyclopenta[1,2-c]pyrazol-1-yl)acetamide] | > 500 | 10.04
Cc1ccnnc1-c1ccc2c(=O)n(-c3ccc(Cl)c4c(NS(C)(=O)=O)nn(C)c34)c([C@H](Cc3cc(F)cc(F)c3)NC(=O)Cn3nc(C(F)F)c4c3C(F)(F)[C@@H]3C[C@H]43)nc2c1 (atropisomer, axis not shown; (P)) [Example 51, N—((S)-1-((3P)-3-(4-chloro-1-methyl-3-(methylsulfonamido)-1H-indazol-7-yl)-7-(4-methylpyridazin-3-yl)-4-oxo-3,4-dihydroquinazolin-2-yl)-2-(3,5-difluorophenyl)ethyl)-2-((3bS,4aR)-3-(difluoromethyl)-5,5-difluoro-3b,4,4a,5-tetrahydro-1H-cyclopropa[3,4]cyclopenta[1,2-c]pyrazol-1-yl)acetamide] | > 500 | 9.85
CN(c1ccc(-c2ccc3c(=O)n(-c4ccc(Cl)c5c(NS(C)(=O)=O)nn(C)c45)c([C@H](Cc4cc(F)cc(F)c4)NC(=O)Cn4nc(C(F)F)c5c4C(F)(F)[C@@H]4C[C@H]54)nc3c2)cc1)S(C)(=O)=O [Example 29, N—((S)-1-((3P)-3-(4-chloro-1-methyl-3-(methylsulfonamido)-1H-indazol-7-yl)-7-(4-(N-methylmethylsulfonamido)phenyl)-4-oxo-3,4-dihydroquinazolin-2-yl)-2-(3,5-difluorophenyl)ethyl)-2-((3bS,4aR)-3-(difluoromethyl)-5,5-difluoro-3b,4,4a,5-tetrahydro-1H-cyclopropa[3,4]cyclopenta[1,2-c]pyrazol-1-yl)acetamide] | > 500 | 9.54
CS(=O)(=O)Nc1nn(CC(F)F)c2c(-n3c([C@H](Cc4cc(F)cc(F)c4)NC(=O)Cn4nc(C(F)F)c5c4C(F)(F)[C@@H]4C[C@H]54)nc4cc(-c5ncccc5S(C)(=O)=O)ccc4c3=O)ccc(Cl)c12 (atropisomer, axis not shown) [Example 136, N-[(1S)-1-{3-[4-chloro-1-(2,2-difluoroethyl)-3-methanesulfonamido-1H-indazol-7-yl]-7-(3-methanesulfonylpyridin-2-yl)-4-oxo-3,4-dihydroquinazolin-2-yl}-2-(3,5-difluorophenyl)ethyl]-2-[(2S,4R)-9-(difluoromethyl)-5,5-difluoro-7,8-diazatricyclo[4.3.0.0^2,^4]nona-1(6),8-dien-7-yl]acetamide] | > 500 | 10.34
Cn1nc(NS(C)(=O)=O)c2c(Cl)ccc(-n3c([C@H](Cc4cc(F)cc(F)c4)NC(=O)Cn4nc(C(F)F)c5c4C(F)(F)[C@@H]4C[C@H]54)nc4cc(-c5cccc(C6CC6)n5)ccc4c3=O)c21 (atropisomer, axis not shown; (P)) [Example 41, N—((S)-1-((3P)-3-(4-chloro-1-methyl-3-(methylsulfonamido)-1H-indazol-7-yl)-7-(6-cyclopropylpyridin-2-yl)-4-oxo-3,4-dihydroquinazolin-2-yl)-2-(3,5-difluorophenyl)ethyl)-2-((3bS,4aR)-3-(difluoromethyl)-5,5-difluoro-3b,4,4a,5-tetrahydro-1H-cyclopropa[3,4]cyclopenta[1,2-c]pyrazol-1-yl)acetamide] | > 500 | 9.48
